Data from patent publication US12447216B2, “Biogenic hemin-based MRI contrast agents, and compositions and methods thereof” (University of Massachusetts, priority 2017, dated 2025).

How the values were obtained:
[1] = parameters: species or system mice; settings: mouse, in vivo, iv
Source text: (§1) The biocompatibility of hematin for injection was comprehensively investigated, for example, via blood routine examination, histological analysis, and body weight monitoring.
Another group of mice injected with PBS were used as control.
Meanwhile, blood samples were collected at different intervals after treatment with HeOH-PEG. […] Another group of mice injected of PBS were used as control.

[2] = T1 relaxivity (r1) measurement and T1-weighted in vitro MR imaging; type: physicochemical
Description: Hematin was studied for its properties in MR imaging.
(§2) FIG. 1 is a graph showing r1 values and 1/T1 values according to Fe concentrations of metalloporphyrin-based MRI-CAs after dispersion in water. […] To further evaluate its MRI performance in vivo, hematin at a dose of 2 mg/kg/day, which is within the recommended range for clinical use, was administered into the tail veins of nude mice.
The composition of the prepared He-PEG was confirmed by NMR spectroscopy. […] The ^1H NMR spectrum of the He-PEG nanoparticles confirmed the successful conjugation of He with PEG2000. The magnetic property of the produced He-PEG particles was determined by measuring the longitudinal relaxivity values, which referred to the slope of the 1/T1 (R1) plot versus Fe ion concentration.
FIGS. 5 and 6 show r1 values and 1/T1 values according to Fe concentrations of He—OH after dispersion in water.

[3] = In vivo MR imaging / MR angiography after tail vein injection; settings: nude mice, 2 mg/kg/day, FIG. 2
Description: as §2
To study the potential application of HeOH-PEG for in vivo MRI, a series of MR imaging were performed at different time points after HeOH-PEG was injected via tail vein into health node mice (500 μL, 0.48 mmol […] per kg mice). FIG. 11 is the 3D image of MR angiography acquired from the mouse after intravenous injection with HeOH-PEG.
The MR signal enhancement with excellent contrast in the vasculature lasted until 60 min post injection.

[4] = Histological analysis (hematoxylin and eosin) of major organs; type: in vivo; settings: mice; 14 days after administration
Description: as §1
Subsequently, hematoxylin and eosin examinations were performed on major organs (e.g., heart, liver, spleen, lung, and kidney) collected from healthy mice and those treated with HeOH-PEG. […] No significant differences were found between the cellular morphology of the studied organs in the HeOH-PEG treated group and the control group (FIG. 10).

[5] = Body weight monitoring after tail vein injection; type: in vivo; settings: mice, versus PBS control, 2 weeks
Source text: as §1

[6] = only in a rare case; cited from earlier work

blood routine examination parameters versus normal range [1]: within the normal range
T1 relaxivity value ([2]; 3.0 T MR scanner, dispersion in water, FIG. 1): 0.424 mM⁻¹ s⁻¹
r1 value (longitudinal relaxivity, slope of 1/T1 versus Fe ion concentration) ([2]; dispersion in water): 0.424 s^−1 mM^−1 Fe
Structure (SMILES): C=CC1=C(C)c2cc3[n-]c(cc4[n-]c(cc5nc(cc1n2)C(C)=C5C=C)c(C)c4CCC(=O)O)c(CCC(=O)O)c3C.O.[Fe+2] [hematin]
T1-weighted in vitro MR imaging signal ([2]; various Fe concentrations): concentration-dependent brightening effect
T1 signal in vivo after intravenous administration [3]: increase in the T1 signal was clearly observed in the heart and large vessel
histological changes in heart, liver, spleen, lung and kidney [4]: no obvious histological changes
body weight change [5]: no significant changes compared to the control group
excessive hematin dose reported to induce reversible renal shutdown [6]: 12.2 mg/kg
